Entries after “also recorded” stand apart in the source; their conditions may differ.

In data set [1] the test system is Spodoptera litura FABRICIUS
As to the kind of experiment: antifeeding effect by the leaf disk method (antifeedant index). Conditions: for Antifeedant index (AFI): 30 or less = antifeeding activity. Also noted: key to Antifeedant index (AFI): AFI = 100×T/(T+C); 50 = same as control, ≤30 = antifeeding. The data set is classed as in vivo, Spodoptera litura FABRICIUS larvae, third or fourth instar. On the procedure: A test for an antifeeding effect on insects was conducted by the leaf disk method. After wiping off the surface of a leaf of Ipomoea batatas with acetone in order to remove extraneous matter on the leaf, a disk having a diameter of 2 cm was cut out with a cork borer, avoiding the veins of the leaf. An acetone solution containing the predetermined amount of samples was applied to the disk, which was sufficiently air-dried. As a control, the same amount of acetone solution was used, and applied to the leaf disk in the same manner as in the sample. Two pieces each of the sample and the control were placed crosswise in a petri dish, and 15 larvae of Spodoptera litura FABRICIUS were set in the petri dish to put on the lid. The Spodoptera litura FABRICIUS used was the third or fourth instar. This is because the younger the larvae, the greater the effect they receive due to allelochemical. The first or second instar larvae prefer to eat a tender portion of the leaf because they cannot eat hard veins or fiber of the leaf. On the other hand, the fifth or sixth instar larvae move the leafdisk because they are well-built. Further, the antifeeding effect due to allelochemical is lowered because they eat any portion of the leaf. Therefore, it is better not to use the fifth or sixth instar larvae.
The petri dish was allowed to stand in a thermostatic chamber at 25 to 27° C. under light. Two to 5 hours later, 4 pieces of the leaf were taken out to convert them into black and white pictures with a photocopier. Using a scanner, the disk area was digitized, and then the disk area was expressed numerically at the pixel unit on a Mackintosh computer using a free soft NIH image.
The method of calculating an antifeedant index (AFI) is as follows. First, a standard area of an intact leaf is calculated. The ratio of the area of the leaf consumed by the larvae to the standard area of the leaf was calculated.
Antifeedant index=100×T/(T+C)
T: Total percentage of treated disk consumed
C: Total percentage of control disk consumed
If this index is 30 or less, the tested leaf has antifeeding activity. […] When the consumed area of the sample and that of the control is the same, the antifeedant index indicates 50.
Concerning scabequinone, remirol, cyperaquinone and methylremirol, the AFI and FR were calculated according to the method for testing an antifeeding effect.

In data set [2] the test system is Tyrophagus putrescentiae SCHRANK. In words: dry film method in test tube, repelling of Tyrophagus putrescentiae. The data set is classed as in vivo. The note with it: 1 mg, 25° C., 1 day. On the procedure:
To 1 mg of cyperaquinone was added acetone and the resulting solution was charged in a test tube (a diameter of 1 cm). Thereafter, the solution was treated by the dry film method. (The method is as follows: a solution was charged at the bottom of a test tube. After applying the solution to the wall of the test tube, the solvent was removed to leave a sample on the wall of the test tube.) Fifty Tyrophagus putrescentiae SCHRANK were set in the test tube. After growing them at 25° C. for 1 day, the confirmation was conducted with a stereomicroscope.

Data set [3] deals with plants. The note with it: background statement; cited from earlier work.
The test system of data set [4] is Plutella maculipennis CURTIS. As to the kind of experiment: test for an insecticidal effect (contact application). Conditions: for LD50: acetone solution applied to third instar larvae, 24 hours, probit method; for insecticidal effect / LD50 comparison (in words): versus scabequinone. The data set is classed as in vivo, Plutella maculipennis CURTIS larvae, third instar. On the procedure:
In order to test the insecticidal effect of remirol, methylremirol and scabequinone, acetone was added to each sample and the resulting acetone solution was applied to the third instar larvae of Plutella maculipennis CURTIS. Thereafter, Kaiwaredaikon (Raphanus sativus LINN, C.V. shijunichi) was fed to them as a feed and the number of survived larvae after 24 hours was counted. LD50 (lethal dose 50) was calculated by the probit method.

Where [5] appears, read: 1 mg/leaf, 50 = no difference from control.

In the case of `C=C(C)C1Cc2c(cc(OC)c(C(C)=O)c2OC)O1` (racemic) [racemic methylremirol], the “Antifeedant index (AFI)” value in data set [1] (setting [5]) is 44.3.
The same measure, in the same setting: with `C=C(C)C1Cc2c(OC)cc(OC)cc2O1` (stereo not drawn) [2-isopopenyl-4,6-methoxy-coumaran, 2-isopropenyl-4,6-methoxycoumaran] the figure was 26.1.
As to `C=C(C)c1cc2c(o1)C(=O)c1occ(C)c1C2=O` [cyperaquinone], the “mortality (in words)” value in data set [2] is listed as “Some of the Tyrophagus putrescentiae SCHRANK were dead”. Besides, in data set [2], the “repelling effect (in words)” value was “had a repelling effect on Tyrophagus putrescentiae SCHRANK”. Besides, the “FR (consumed ratio of treated leaves)” value is 16.18 in data set [1] (0.1 mg/leaf), 13.92 in data set [1] (0.25 mg/leaf) and 9.98 in data set [1] (1 mg/leaf). For the same molecule, the “Antifeedant index (AFI)” value in data set [1] (0.25 mg/leaf) is 26.03; in data set [1] (setting [5]), 20.98.
Consider `O=C1C=CC(=O)c2c(O)cccc21` [juglone, reference compound], for which the “FR (consumed ratio of treated leaves)” value in data set [1] (0.1 mg/leaf), in data set [1] (0.25 mg/leaf) and in data set [1] (1 mg/leaf) was 0 each time. Also, the “Antifeedant index (AFI)” value in data set [1] (0.1 mg/leaf), in data set [1] (0.25 mg/leaf) and in data set [1] (setting [5]) was 0 throughout. In addition, in data set [3], the “anti-breeding effect on the plants” value was “strong anti-breedingeffect on the plants”.
With `C=C(C)C1Cc2c(cc(OC)c(C(C)=O)c2OC)O1` (stereo not drawn) [methylremirol], in data set [4], the LD50 is 1.0 mg and the “insecticidal effect / LD50 comparison (in words)” value is recorded as “superior to scabequinone in the insecticidal effect”. Besides, in data set [1] (setting [5]), the “Antifeedant index (AFI)” value was 0.
As to `O=c1c(O)c(-c2ccc(O)c(O)c2)oc2cc(O)cc(O)c12` [quercetin, reference compound], the “FR (consumed ratio of treated leaves)” value was found to be 15.96 in data set [1] (0.1 mg/leaf), 13.07 in data set [1] (0.25 mg/leaf) and 0.66 in data set [1] (1 mg/leaf). Further, the entries for the “Antifeedant index (AFI)” value in data set [1] (0.1 mg/leaf), in data set [1] (0.25 mg/leaf) and in data set [1] (setting [5]) were 25.04, 25.08 and 2.07, respectively.
Consider `C=C(C)C1Cc2c(cc(OC)c(C(C)=O)c2O)O1` (stereo not drawn) [remirol], for which the LD50 in data set [4] was determined as 0.125 mg. In addition, the “insecticidal effect / LD50 comparison (in words)” value in data set [4] is “superior to scabequinone in the insecticidal effect”. Moreover, the “FR (consumed ratio of treated leaves)” value in data set [1] (0.1 mg/leaf) turned out to be 11.33; in data set [1] (0.25 mg/leaf), 10.31; in data set [1] (1 mg/leaf), 3.84. Further, the “Antifeedant index (AFI)” value in data set [1] (0.25 mg/leaf) is given as 19.02; in data set [1] (setting [5]), 8.57.
`Cc1coc2c1C(=O)C1=C(OCC(C(C)C)C1)C2=O` (stereo not drawn) [scabequinone] had an LD50 in data set [4] of 1.371 mg. Further, the “FR (consumed ratio of treated leaves)” value is given as 1.61 in data set [1] (0.1 mg/leaf) and 0.47 in data set [1] (0.25 mg/leaf). For the same molecule, the entries for the “Antifeedant index (AFI)” value in data set [1] (0.1 mg/leaf), in data set [1] (0.25 mg/leaf) and in data set [1] (setting [5]) were 4.22, 2.16 and 0, respectively. Besides, in data set [1] (leaf disk method), the “antifeeding effect (in words)” value is “did quite well in the antifeeding effect; also recorded: by far superior to another commercially available product quercetin”.
